We go through six compounds from US20260216220A1, “TREATMENT OF MYELOPEROXIDASE-POSITIVE ANCA-ASSOCIATED VASCULITIS WITH H2S RELEASING COMPOUNDS” (DEBRECENI EGYETEM, priority 2022, published 2026).

Where two headings read alike, the source gives them in different places.

For experiment [1], the system named is mouse model of MPO-ANCA vasculitis. Description: ANCA vasculitis mouse model (anti-MPO splenocyte transfer into Rag2−/− mice), kidney histology. The experiment is classed as in vivo. The following applies: ATB 60 μmol/kg, administered orally (per os).
Description: MPO knockout mice were immunized with mouse MPO based on the following protocol. On day 1 200 μl of 20 μg murine MPO (mMPO) or BSA in total with Complete Freud's Adjuvant were injected to MPO KO mice. 30-40 μl were injected to the backfoot footpads and 120-160 μl were injected subcutaneously in the abdominal region. On day 14 20 μg mMPO/BSA were injected IP with incomplete Freud's Adjuvant and on day 28 mice were boosted with 20 μg mMPO/BSA in DPBS buffer IP. 10 days after boost blood was drawn from eye corner under isoflurane anesthesia and antibody titers were checked by anti-MPO ELISA. If titer were low mice were boosted again with 20 μg mMPO or BSA and titer were checked again 7 days later. If titers were appropriate mice were terminated and splenocytes were isolated. […] The remaining red blood cells were lysed with Red Blood Cell Lysis Buffer according to manufacturer's instructions. […] Cells were counted using trypan blue solution, the total cell count varied between 3×10^7 and 6×10^7. Splenocytes derived from 1 mouse were injected into 2 Rag2−/− immunodeficient mice intravenously. […] After 4 weeks antibody titers were checked with anti-MPO ELISA. […]
The percentage of affected glomeruli in treated samples were calculated compared to their control pairs.
Experiment [2] concerns neutrophils. The following applies: cited from earlier work.
Experiment [3] has as its system neutrophils. Description: Neutrophil phagocytosis of fluorescent Escherichia coli K-12 BioParticles (Vybrant kit). The following applies: GYY4137 10-100 μM, 2 hours. The experiment is classed as cell-based, human.
Description: Phagocytosis experiments were carried out with the Vybrant™ Phagocytosis Assay Kit based on manufacturers instruction. Briefly, Fluorescent-labeled Escherichia coli K-12 BioParticles, and trypan blue stock solutions were prepared. […] 1 hour or 5 minutes prior to the addition of the fluorescent BioParticles suspension. After 2 hours the BioParticle solution was removed, 100 μl trypan blue solution was added immediately, and incubated for 1 minute at room temperature. Trypan blue was removed and 100 μl HBSS was added to each well. Fluorescence was measured at the excitation and emission wavelengths of 480 and 520 nm respectively. Samples for microscopy analysis were prepared similarly with the cell number of 2×10^5/well in EZ slide chamber slides.
Experiment [4] concerns PMA-activated neutrophils.
The test system of experiment [5] is PMA activated neutrophils.
For experiment [6], the system named is neutrophils. The following applies: cited from earlier work. This is another data set of the same source.
Where [7] appears, read: upon PMA and bacterial activation.

Take `COc1ccc2cc(C(C)C(=O)Oc3ccc(C(N)=S)cc3)ccc2c1` (stereo not drawn) [ATB346]: the “efficacy on kidney damage in ANCA mouse model” value in experiment [1] is listed as “nor proved to be beneficial in reducing kidney damage”; in experiment [1] (listed as ATB), “proved to be inefficient”.
As for `C=CCSSSCC=C` [diallyl-trisulfide], in the experiment on neutrophils [2] (setting [7]), the neutrophil apoptosis result was “inhibited neutrophil apoptosis” and the oxidative burst entry was “promoted oxidative burst”.
For `C=C1[C@@H](C)[C@H]2[C@H](Cc3ccccc3)NC(=O)[C@]23[C@H](OC(C)=O)/C=C/[C@@](C)(O)C(=O)[C@@H](C)C/C=C/[C@H]3[C@@H]1O` [cytochalasin D], in the experiment with neutrophils [3], the “phagocytosis of E. coli Bioparticles (fluorescent microscopy)” value is “inhibited”.
As for sodium sulfide, in the experiment with neutrophils [2], the neutrophil apoptosis entry is given as “inhibited neutrophil apoptosis” and the oxidative burst result is given as “promoted oxidative burst”. In experiment [4], the “β-glucuronidase activity in supernatants (degranulation), PMA activation” value is given as “no effect on the enzymatic activity”. In experiment [5], the “H2O2 production by PMA-activated neutrophils (FOX assay)” value is recorded as “not affected”. Further, in the experiment with neutrophils [6], the “killing of bacteria by neutrophils” value was “more efficient in killing bacteria” and the neutrophil apoptosis entry is listed as “diminished neutrophil apoptosis”.
Take `C=CCSSCC=C` [diallyl-disulfide]: in the experiment on neutrophils [2] (setting [7]), the neutrophil apoptosis result is “inhibited neutrophil apoptosis” and the oxidative burst result is given as “promoted oxidative burst”.
Regarding `N[C@@H](CS)C(=O)O` [cysteine], in the experiment with neutrophils [2] (setting [7]), the neutrophil apoptosis entry was “inhibited neutrophil apoptosis” and the oxidative burst entry was “promoted oxidative burst”.
